# According to US6444616B1, “Substituted p-trifluoromethylphenyluracils” (Bayer Aktiengesellschaft, priority 1999, dated 2002):
# Tests used:
# Sinapis [1] = experiment: Pre-emergence test; format: in vivo; settings: rated after 3 weeks, application rate not stated
# Experimental: (§1) Solvent: 5 parts by weight of acetone
# (§2) Emulsifier: 1 part by weight of alkylaryl polyglycol ether
# (§3) To produce a suitable preparation of active compound, 1 part by weight of active compound is mixed with the stated amount of solvent, the stated amount of emulsifier is added and the concentrate is diluted with water to the desired concentration.
# (§4) Seeds of the test plants are sown in normal soil. After about 24 hours, the soil is sprayed with the preparation of active compound in such a way as to apply the particular amounts of active compound desired per unit area. The concentration of the spray liquor is chosen so that the particular amounts of active compound desired are applied in 1000 l of water/ha.
# (§5) After 3 weeks, the degree of damage to plants is rated in % damage in comparison to the development of the untreated control.
# (§6) 0%=no effect (like untreated control)
# Cyperus = experiment: Pre-emergence test; format: in vivo; settings: rated after 3 weeks, application rate not stated, 0%=no effect, 100%=total destruction
# Experimental: as §1, §2, §3, §4, §5, §6
# Abutilon = experiment: Postemergence test; format: in vivo; settings: plants 5-15 cm sprayed, rated after 3 weeks, application rate not stated
# Experimental: as §1, §2
# (§7) To produce an effective preparation of active compound, 1 part by weight of active compound is mixed with the stated amount of solvent, the stated amount of emulsifier is added and the concentrate is diluted with water to the desired concentration.
# (§8) Test plants which have a height of 5-15 cm are sprayed with the preparation of active compound in such a way as to apply the particular amounts of active compound desired per unit area. The concentration of the spray liquor is chosen so that the particular amounts of active compound desired are applied in 1000 l of water/ha.
# (§9) After 3 weeks, the degree of damage to the plants is rated in % damage in comparison to the development of the untreated control.
# as §6
# Matricaria = experiment: Postemergence test; format: in vivo; settings: plants 5-15 cm sprayed, rated after 3 weeks, application rate not stated
# Experimental: as §1, §2, §7, §8, §9, §6
# Ipomoea = experiment: Postemergence test; format: in vivo; settings: plants 5-15 cm sprayed, rated after 3 weeks, application rate not stated
# Experimental: as §1, §2, §7, §8, §9, §6
# polygonum = experiment: Postemergence test; format: in vivo; settings: plants 5-15 cm sprayed, rated after 3 weeks, application rate not stated
# Experimental: as §1, §2, §7, §8, §9, §6
# Solanum = experiment: Postemergence test; format: in vivo; settings: plants 5-15 cm sprayed, rated after 3 weeks, application rate not stated
# Experimental: as §1, §2, §7, §8, §9, §6
# Sinapis [2] = experiment: Postemergence test; format: in vivo; settings: plants 5-15 cm sprayed, rated after 3 weeks, application rate not stated
# Experimental: as §1, §2, §7, §8, §9, §6
# datura = experiment: Postemergence test; format: in vivo; settings: plants 5-15 cm sprayed, rated after 3 weeks, application rate not stated
# Experimental: as §1, §2, §7, §8, §9, §6
SMILES,melting point,"degree of damage to plants, % damage vs untreated control (Sinapis [1])","degree of damage to plants, % damage vs untreated control (Cyperus)","degree of damage to the plants, % damage vs untreated control (Abutilon)","degree of damage to the plants, % damage vs untreated control (Matricaria)","degree of damage to the plants, % damage vs untreated control (Ipomoea)","degree of damage to the plants, % damage vs untreated control (polygonum)","degree of damage to the plants, % damage vs untreated control (Solanum)","degree of damage to the plants, % damage vs untreated control (Sinapis [2])","degree of damage to the plants, % damage vs untreated control (datura)"
"Cn1c(C(F)(F)F)cc(=O)n(-c2cc(F)c(C(F)(F)F)cc2F)c1=O [Example 2, 1-(2,5-difluoro-4-trifluoromethyl-phenyl)-3,6-dihydro-2,6-dioxo-3-methyl-4-trifluoromethyl-1 (2H)-pyrimidine]",110 °C,100%,80%,100%,100%,100%,95%,100%,100%,100%
"O=c1cc(C(F)(F)F)[nH]c(=O)n1-c1cc(F)c(C(F)(F)F)cc1F [Example 1, 1-(2,5-difluoro4-trifluoromethyl-phenyl)-3,6-dihydro-2,6-dioxo-4-trifluoromethyl-1(2H)-pyrimidine]",217 °C,,,,,,,,,
"Nn1c(C(F)(F)F)cc(=O)n(-c2cc(F)c(C(F)(F)F)cc2F)c1=O [Example 3, 3-amino-1-(2,5-difluoro-4-trifluoromethyl-phenyl)-3,6-dihydro-2,6-dioxo-4-trifluoromethyl-1 (2H)-pyrimidine]",157 °C,,,,,,,,,

# Second part, led by results:
melting point,SMILES,"degree of damage to plants, % damage vs untreated control (Sinapis [1])","degree of damage to plants, % damage vs untreated control (Cyperus)","degree of damage to the plants, % damage vs untreated control (Abutilon)","degree of damage to the plants, % damage vs untreated control (Matricaria)","degree of damage to the plants, % damage vs untreated control (Ipomoea)","degree of damage to the plants, % damage vs untreated control (polygonum)","degree of damage to the plants, % damage vs untreated control (Solanum)","degree of damage to the plants, % damage vs untreated control (Sinapis [2])","degree of damage to the plants, % damage vs untreated control (datura)"
227 °C,CS(=O)(=O)Nc1cc(-n2c(=O)cc(C(F)(F)F)[nH]c2=O)c(F)cc1C(F)(F)F [Example 4],100%,80%,100%,100%,100%,95%,100%,100%,100%
163 °C,Cn1c(C(F)(F)F)cc(=O)n(-c2cc(NS(C)(=O)=O)c(C(F)(F)F)cc2F)c1=O [Example 5],100%,80%,100%,100%,100%,95%,100%,100%,100%
